10 molecules from patent US5204345A, “6-epifumagillols and the pharmaceutical use thereof” (Takeda Chemical Industries, Ltd., priority 1989, dated 1993) can be followed below.

Test [1] deals with bFGF-induced angiogenesis. Briefly: rat cornea micropocket method, angiogenesis inhibitory activity. Format: in vivo, rat (Sprague-Dawley). Conditions: number of rats with angiogenesis inhibitory activity relative to number tested; sample 20 ug pellet, bFGF 250 ng, 10 days. The procedure: The object compounds (I) obtained in the Examples given below were evaluated for angiogenesis inhibitory activity by the rat cornea micropocket method. Method of Evaluation:
Essentially the same method of Gimbrone et al. [J. National Cancer Institute, 52, 413-419 (1974)] was followed. Thus, adult male Sprague-Dawley rats (11 to 16 week old) were anesthetized with nembutal and locally anesthetized by instillation of xylocaine eyedrops onto the eyeball. The cornea was incised to a length of about 2 mm at about 2 mm inside from the corneal circumference by means of an injection needle, and a basic fibroblast growth factor (bFGF; bovine brain-derived, purified product; R & D Inc.) and a sustained release pellet containing the test sample were inserted side by side into the incision so that the bFGF pellet was located on the central side in the cornea. In the control group, the bFGF pellet and a sample-free pellet were inserted into the cornea. After 10 days, the cornea was observed under a stereoscopic microscope.
The sustained release pellets were prepared in the following manner. An ethylene-vinyl acetate copolymer (Takeda Chemical Industries, Ltd.) was dissolved in dichloromethane to a concentration of 8%. A 3 μl portion of the solution was air-dried on a glass dish, an aqueous solution of bFGF (250 ng) was then placed thereon and air-dried and, finally 3 μl of the above ethylene-vinyl acetate copolymer solution was placed further thereon and air-dried to give a sandwich sheet. This sandwich sheet was made round into a bFGF pellet. The test sample pellets were prepared by dissolving each sample in ethanol in a concentration of 20 ug/2 μl, mixing the solution with 6 μl of an ethylene-vinyl acetate copolymer solution, air-drying the mixed solution in a glass dish and making the thus-obtainedsheet round.
In the Table 1 above, the inhibitory rate means the number of rats on which angiogenesis inhibitory activity was observed relative to the number of rats tested.

For test [2], the system named is human umbilical vein endothelial cells. Briefly: inhibition of human umbilical vein endothelial cell growth (MTT). Format: cell-based. To be noted: 120 h, rFGF 2 ng/ml, 5-day culture, MTT OD590, read-out: IC50, inhibiting endothelial cell growth. As for the experimental part: Evaluation of inhibition of human umbilical vein endothelial cell growth
Human umbilical vein endothelial cells were isolated by perfusion of an umbilical vein with a trypsin-containing medium. The cells were cultured in sequence in GIT medium (Daigo Eiyo Kagaku) supplemented with 2.5% fetal bovine serum and 2.0 ng/ml or recombinant human fibroblast growth factor (hereinafter simply referred to rFGF, prepared at Biotechnology Research Laboratories, Takeda Chemical Industries, Ltd.).
A suspension of human vein endothelial cells at the cell density of 2×10^3 (100 μl) was seeded on 96-well incubation plate (Nunc, 1-67008), and incubation was conducted in a gas-controlled thermostat vessel. The following day, 100 μl of medium containing rFGF (2 ng/ml at the final concentration) and samples of various concentrations were added. […] After 5-day culture, the culture solution containing samples was removed by suction, 100 μl of 1 mg/ml of MTT solution [3-(4,5-dimethyl-2-thiazolyl)-2,5-diphenyl-2H-tetrazolium bromide was dissolved in the culture solution] was added and kept warm it about 40° C. for 4 hours. Then, 100 μl of a 10% SDS solution (aqueous solution of sodium dodecyl sulfate) was added, and the mixture was kept warming for 5-6 hours. The cells and MTT pigment were solubilized, and the OD590 value was measured using a spectrophotometer.

The subject of test [3] is spleen cells from BALB/c and C57BL/6 mice. Briefly: 3H-thymidine uptake induced by the mixed lymphocyte reaction of spleen cells. It counts as cell-based, mouse (BALB/c and C57BL/6). Conditions: Mus musculus, in vitro.
Test [4] deals with T cell dependent immunoglobulin production. Briefly: antibody production induced by pokeweed mitogen (T cell dependent B cell mitogen). It counts as cell-based. To be noted: in vitro. An excerpt: (§1) The effects of compounds 5 and 8 on the antibody production induced by pokeweed mitogen, a T cell dependent B cell mitogen, and Epstein Barr virus, a T cell independent B cell mitogen, were examined.

The subject of test [5] is T cell independent antibody production. Kind of test: antibody production induced by Epstein Barr virus (T cell independent B cell mitogen). Format: cell-based. Conditions: in vitro.
Text: as §1

The test system of test [6] is anti-bovine gamma globulin antibody titer. Kind of test: anti-bovine gamma globulin antibody titer in immunized mice. Format: in vivo, mouse (BALB/c). To be noted: for Anti-bovine gamma globulin antibody titer, suppression: 20 mg/kg i.p. every 2 days, sera 3 weeks after immunization, words; for Anti-bovine gamma globulin Ab titer: percentage against reference group injected with saline, compounds 5 and 8: 20 mg/kg i.p. every 2 days, 3 weeks. As for the experimental part: Anti-bovine gamma globulin antibody titer was assayed in sera obtained 3 weeks after the immunization.

The test system of test [7] is germinal center formation and plasma cell induction in the spleen. Kind of test: histological study in the spleen of mice immunized with sheep red blood cells. Format: in vivo, mouse (BALB/c). Conditions: compounds 5 and 8: 100 mg/kg i.p. once a day for 4 days; day 6 after immunization; words.
The nature of test [8]: thymus and spleen weight. Format: in vivo, mouse (BALB/c). To be noted: for Spleen weight / Thymus weight: percentage against reference group injected with saline; for reduction of spleen weight: words.
Method: and spleen were represented as percentages against those of a reference
group which were injected with saline.
Where [9] appears, read: Lymphocyte, Table 3, read-out: Mixed lymphocyte reaction, concentration which showed 50% inhibition.
The mark [10] stands for this setting: mixed lymphocyte reaction, read-out: 50% inhibition of 3H-thymidine uptake, concentration.
Where [11] appears, read: Table 3, read-out: T dependent Ab production, concentration which showed 50% inhibition.
Where [12] appears, read: pokeweed mitogen, read-out: 50% suppression of T cell dependent immunoglobulin production, concentration.
The mark [13] stands for this setting: Epstein Barr virus, read-out: 50% suppression of T cell independent antibody production, concentration.
The mark [14] stands for this setting: Table 3, read-out: T independent Ab production, concentration which showed 50% inhibition.

Values after ≈ are worked out from the molar mass of the structure shown. Where two headings read alike, the source gives them in different places. Some results are limits rather than exact numbers.

With `CO[C@@H]1[C@@H](OS(C)(=O)=O)CC[C@]2(CO2)[C@H]1[C@@]1(C)O[C@@H]1CC=C(C)C` [Example 12, 6-O-methanesulfonyl-6-epifumagillol], the “Inhibitory Rate” value in test [1] was 3/4. The IC50 in test [2] amounted to 6.5 ng/mL (≈ 18 nM).
`CO[C@@H]1[C@@H](OC(=O)Oc2ccccc2)CC[C@]2(CO2)[C@H]1[C@@]1(C)O[C@@H]1CC=C(C)C` [Example 8, 6-O-phenoxycarbonyl-6-epifumagillol]: in test [1], the “Inhibitory Rate” value is 5/7. In addition, the IC50 in test [2] came out at 0.166 ng/mL (≈ 0.412 nM); in test [3] (setting [9]), 400 nM; in test [3] (setting [10]), 10 nM; in test [4] (setting [11]) it was 4000 nM; in test [4] (setting [12]) it was 4000 nM; in test [5] (setting [13]), 1 nM. Besides, the IC50 in test [5] (setting [14]) was determined as 1 nM. Further, the “Anti-bovine gamma globulin antibody titer, suppression” value in test [6] is recorded as “significant suppression”. For the same molecule, the “Anti-bovine gamma globulin Ab titer” value in test [6] worked out at 9%. Further, in test [7], the “formation of germinal center in the spleen” value was “suppressed the formation of germinal center”. For the same molecule, the “induction of plasma cells in the spleen” value in test [7] was “suppressed”. In test [8], this molecule returned a Spleen weight of 60%. In test [8], this molecule had a Thymus weight of 116%. Moreover, the “reduction of spleen weight” value in test [8] is given as “reduction of spleen weight was observed”.
As for `CO[C@@H]1[C@@H](OC(=O)CCC(=O)O)CC[C@]2(CO2)[C@H]1[C@@]1(C)O[C@@H]1CC=C(C)C` [Example 7, 6-O-(3-carboxypropionyl)-6-epifumagillol], in test [1], the “Inhibitory Rate” value is listed as 5/6. In addition, in test [2], the IC50 was 8.71 ng/mL (≈ 22.8 nM).
Regarding `CO[C@@H]1[C@@H](OC(C)=O)CC[C@]2(CO2)[C@H]1[C@@]1(C)O[C@@H]1CC=C(C)C` [Example 5, 6-O-acetyl-6-epifumagillol], the “Inhibitory Rate” value in test [1] was 4/8. The IC50 in test [2] was found to be 1.91 ng/mL (≈ 5.89 nM); in test [3] (setting [9]) it was 300 nM; in test [3] (setting [10]), 300 nM; in test [4] (setting [11]), 7000 nM; in test [4] (setting [12]), 7000 nM; in test [5] (setting [13]), 30 nM. In test [5] (setting [14]), the IC50 came to 30 nM. Besides, the “Anti-bovine gamma globulin antibody titer, suppression” value in test [6] is recorded as “significant suppression”. Also, the “Anti-bovine gamma globulin Ab titer” value in test [6] was found to be 13%. In addition, the “formation of germinal center in the spleen” value in test [7] is given as “suppressed the formation of germinal center”. For the same molecule, in test [7], the “induction of plasma cells in the spleen” value is “suppressed”. Besides, the Spleen weight in test [8] was found to be 57%. Moreover, in test [8], the Thymus weight came to 105%. Besides, the “reduction of spleen weight” value in test [8] is “reduction of spleen weight was observed”.
As to `CO[C@@H]1[C@@H](OC=O)CC[C@]2(CO2)[C@H]1[C@@]1(C)O[C@@H]1CC=C(C)C` [Example 1, 6-O-formyl-6-epifumagillol], the “Inhibitory Rate” value in test [1] is given as 3/7. Also, in test [2], the IC50 was below 0.08 ng/mL.
As for `CO[C@@H]1[C@@H](OC(N)=O)CC[C@]2(CO2)[C@H]1[C@@]1(C)O[C@@H]1CC=C(C)C` [Example 9, 6-O-carbamoyl-6-epifumagillol], the IC50 in test [2] is 0.1 ng/mL (≈ 0.307 nM).
On the same count and under the same terms, for `CO[C@@H]1[C@@H](OC)CC[C@]2(CO2)[C@H]1[C@@]1(C)O[C@@H]1CC=C(C)C` [Example 3, 6-O-methyl-6-epifumagillol] the value was 9.82 ng/mL (≈ 33.1 nM).
Take `CO[C@@H]1[C@@H](OC(=O)c2ccccc2)CC[C@]2(CO2)[C@H]1[C@@]1(C)O[C@@H]1CC=C(C)C` [Example 6, 6-O-benzoyl-6-epifumagillol]: the “Inhibitory Rate” value in test [1] is 6/6. Further, the IC50 in test [2] is 2.05 ng/mL (≈ 5.3 nM).
Turning to `CO[C@@H]1[C@@H](O)CC[C@]2(CO2)[C@H]1[C@@]1(C)O[C@@H]1CC=C(C)C` [Example 2, 6-epifumagillol], the “Inhibitory Rate” value in test [1] is 3/7. The IC50 in test [2] is below 0.08 ng/mL.
On to `CO[C@@H]1[C@@H](OC(=O)N2CCOCC2)CC[C@]2(CO2)[C@H]1[C@@]1(C)O[C@@H]1CC=C(C)C` [Example 11, 6-O-morpholinocarbonyl-6-epifumagillol], for which the IC50 in test [2] is 4.68 ng/mL (≈ 11.8 nM).
